In US9580390B2, “Indazole compounds as kinase inhibitors and method of treating cancer with same” (University Health Network, priority 2011, dated 2017):
Read-outs that look alike come from different tables or passages of the source.

Columns and labels:
human TTK = biological target: T1, human TTK (Homo sapiens, UniProt P33981); assay: TTK inhibition assay (indirect ELISA); assay type: biochemical; details: read-out: TTK IC50 Range
T1 construct: amino terminal GST fusion of full length human TTK; purchased Invitrogen
T1 sequence (P33981 1-857): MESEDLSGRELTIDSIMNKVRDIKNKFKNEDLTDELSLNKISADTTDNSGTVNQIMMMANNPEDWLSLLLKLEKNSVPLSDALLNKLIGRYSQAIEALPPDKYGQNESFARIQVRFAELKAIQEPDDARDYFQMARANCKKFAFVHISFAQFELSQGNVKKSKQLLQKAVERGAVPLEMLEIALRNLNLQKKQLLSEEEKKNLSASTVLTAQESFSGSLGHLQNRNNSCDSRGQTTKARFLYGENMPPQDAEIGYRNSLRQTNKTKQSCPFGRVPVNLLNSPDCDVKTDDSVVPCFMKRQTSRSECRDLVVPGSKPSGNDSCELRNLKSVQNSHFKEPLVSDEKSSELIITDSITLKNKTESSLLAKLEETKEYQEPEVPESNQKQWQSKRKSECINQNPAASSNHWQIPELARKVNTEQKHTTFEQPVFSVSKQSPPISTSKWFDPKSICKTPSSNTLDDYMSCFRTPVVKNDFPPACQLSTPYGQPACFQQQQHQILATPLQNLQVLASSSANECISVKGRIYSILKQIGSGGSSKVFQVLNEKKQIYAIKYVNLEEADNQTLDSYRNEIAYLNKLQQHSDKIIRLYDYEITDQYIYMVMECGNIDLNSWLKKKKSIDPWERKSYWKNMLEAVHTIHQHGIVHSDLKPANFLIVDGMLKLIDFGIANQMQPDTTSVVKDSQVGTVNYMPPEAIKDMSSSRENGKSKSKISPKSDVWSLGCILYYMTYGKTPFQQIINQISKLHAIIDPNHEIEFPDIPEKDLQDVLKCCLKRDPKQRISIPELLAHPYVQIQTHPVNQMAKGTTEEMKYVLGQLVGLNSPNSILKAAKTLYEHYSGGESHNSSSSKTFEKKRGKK

[1] = system: colon cancer cells (HCT116); assay: Cancer cell line growth inhibition (SRB assay); assay type: cell-based; details: Homo sapiens, HCT-116, read-out: Cancer Cell Line GI50 Range HCT116
[2] = system: ovarian cancer cells (PA-1); assay: Cancer cell line growth inhibition (SRB assay); assay type: cell-based; details: read-out: Cancer Cell Line GI50 Range PA-1
[3] = HCT116 colon cancer cells, SRB assay
[4] = PA-1 ovarian cancer cells, SRB assay

| Structure (SMILES) | IC50 (human TTK) [nM] | GI50 [1, 3] [nM] | GI50 [2, 4] [nM] | GI50 [1] [nM] | GI50 ([2]; Homo sapiens, PA-1) [nM] |
| --- | --- | --- | --- | --- | --- |
| CCC(CC)(CNC(=O)c1ccc2[nH]nc(-c3ccc(N4CCOCC4)cc3)c2c1)c1ccccc1 [Example A437, N-(2-ethyl-2-phenylbutyl)-3-(4-morpholinophenyl)-1H-indazole-5-carboxamide] | < 100 |  |  | 100 to 500 | 100 to 500 |
| C[C@@H]1CN(c2ccc(-c3n[nH]c4ccc(C(=O)NCC5(N6CCOCC6)CCCCC5)cc34)cc2)C[C@H](C)O1 [Example A454, 3-(4-((2S,6R)-2,6-dimethylmorpholino)phenyl)-N-((1-morpholinocyclohexyl)methyl)-1H-indazole-5-carboxamide] | < 100 | 100 to 500 | 100 to 500 |  |  |
| CN1CCC(Oc2ccc(-c3n[nH]c4ccc(C(=O)NCC5(N6CCOCC6)CCC(F)(F)CC5)cc34)cc2)CC1 [Example A458, N-((4,4-difluoro-1-morpholinocyclohexyl)methyl)-3-(4-((1-methylpiperidin-4-yl)oxy)phenyl)-1H-indazole-5-carboxamide] | < 100 | 100 to 500 | 100 to 500 |  |  |
| O=C(CC1(c2ccccc2)COC1)Nc1ccc2[nH]nc(-c3ccc(OC4CCN(C5COC5)CC4)cc3)c2c1 [Example A462, N-(3-(4-((1-(oxetan-3-yl)piperidin-4-yl)oxy)phenyl)-1H-indazol-5-yl)-2-(3-phenyloxetan-3-yl)acetamide] | 100 to 500 |  |  | > 500 | > 500 |
| CCC(CC)(CNC(=O)c1ccc2[nH]nc(-c3ccc(OC4CCN(C5COC5)CC4)cc3)c2c1)N1CCOCC1 [Example A466, N-(2-ethyl-2-morpholinobutyl)-3-(4-((1-(oxetan-3-yl)piperidin-4-yl)oxy)phenyl)-1H-indazole-5-carboxamide] | < 100 |  |  | 100 to 500 | < 100 |
| O=C(NCC1(c2ccccc2)CCCCC1)c1ccc2[nH]nc(-c3ccc(N4CCOCC4)cc3)c2c1 [Example A469, 3-(4-morpholinophenyl)-N-((1-phenylcyclohexyl)methyl)-1H-indazole-5-carboxamide] | < 100 | 100 to 500 | 100 to 500 |  |  |
| CN1CCC(Oc2ccc(-c3n[nH]c4ccc(C(=O)NCC5(c6ccccc6)CCCCC5)cc34)cc2)CC1 [Example A470, 3-(4-((1-methylpiperidin-4-yl)oxy)phenyl)-N-((1-phenylcyclohexyl)methyl)-1H-indazole-5-carboxamide] | < 100 | 100 to 500 | 100 to 500 |  |  |
| CN1CCC(Oc2ccc(-c3n[nH]c4ccc(C(=O)NCC5(c6ccccc6)CC5)cc34)cc2)CC1 [Example A471, 3-(4-((1-methylpiperidin-4-yl)oxy)phenyl)-N-((1-phenylcyclopropyl)methyl)-1H-indazole-5-carboxamide] | < 100 | 100 to 500 | 100 to 500 |  |  |
| CN1CCC(Oc2ccc(-c3n[nH]c4ccc(C(=O)NCC5(c6ccsc6)CCCCC5)cc34)cc2)CC1 [Example A472, 3-(4-((1-methylpiperidin-4-yl)oxy)phenyl)-N-((1-(thiophen-3-yl)cyclohexyl)methyl)-1H-indazole-5-carboxamide] | < 100 | 100 to 500 | 100 to 500 |  |  |
| CN1CCC(Oc2ccc(-c3n[nH]c4ccc(C(=O)NCC5(c6ccccc6)CCOCC5)cc34)cc2)CC1 [Example A473, 3-(4-((1-methylpiperidin-4-yl)oxy)phenyl)-N-((4-phenyltetrahydro-2H-pyran-4-yl)methyl)-1H-indazole-5-carboxamide] | < 100 | 100 to 500 | 100 to 500 |  |  |
| CN1CCC(Oc2ccc(-c3n[nH]c4ccc(C(=O)NCC5(c6ccccn6)CCCCC5)cc34)cc2)CC1 [Example A474, 3-(4-((1-methylpiperidin-4-yl)oxy)phenyl)-N-((1-(pyridin-2-yl)cyclohexyl)methyl)-1H-indazole-5-carboxamide] | < 100 | 100 to 500 | 100 to 500 |  |  |
| CN1CCC(Oc2ccc(-c3n[nH]c4ccc(C(=O)NCC5(c6ccccc6F)CCOCC5)cc34)cc2)CC1 [Example A476, N-((4-(2-fluorophenyl)tetrahydro-2H-pyran-4-yl)methyl)-3-(4-((1-methylpiperidin-4-yl)oxy)phenyl)-1H-indazole-5-carboxamide] | < 100 | 100 to 500 | 100 to 500 |  |  |
| CN1CCC(Oc2ccc(-c3n[nH]c4ccc(C(=O)NCC5(c6ccncc6)CCOCC5)cc34)cc2)CC1 [Example A478, 3-(4-((1-methylpiperidin-4-yl)oxy)phenyl)-N-((4-(pyridin-4-yl)tetrahydro-2H-pyran-4-yl)methyl)-1H-indazole-5-carboxamide] | < 100 | > 500 | > 500 |  |  |
| CN1CCC(Oc2ccc(-c3n[nH]c4ccc(C(=O)NCC5(c6ccncc6)CCCCC5)cc34)cc2)CC1 [Example A480, 3-(4-((1-methylpiperidin-4-yl)oxy)phenyl)-N-((1-(pyridin-4-yl)cyclohexyl)methyl)-1H-indazole-5-carboxamide] | < 100 | 100 to 500 | 100 to 500 |  |  |
| CN1CC[C@@H](Oc2ccc(-c3n[nH]c4ccc(C(=O)NCC5(N6CCOCC6)CCCCC5)cc34)cc2)C1 [Example A481, (R)-3-(4-((1-methylpyrrolidin-3-yl)oxy)phenyl)-N-((1-morpholinocyclohexyl)methyl)-1H-indazole-5-carboxamide] | < 100 | 100 to 500 | 100 to 500 |  |  |
| O=C(NCC1(N2CCOCC2)CCCCC1)c1ccc2[nH]nc(-c3ccc(N4CC5CCC(C4)O5)cc3)c2c1 [Example A483, 3-(4-(8-oxa-3-azabicydo[3.2.1]octan-3-yl)phenyl)-N-((1-morpholinocyclohexyl)methyl)-1H-indazole-5-carboxamide] | < 100 |  |  | 100 to 500 | 100 to 500 |

Second part, the molecule after the results:

| IC50 (human TTK) [nM] | GI50 [1, 3] [nM] | GI50 [2, 4] [nM] | GI50 [1] [nM] | GI50 ([2]; Homo sapiens, PA-1) [nM] | Structure (SMILES) |
| --- | --- | --- | --- | --- | --- |
| < 100 | < 100 | < 100 |  |  | O=C(NCC1(N2CCOCC2)CCCCC1)c1ccc2[nH]nc(-c3ccc(N4CCC(O)CC4)cc3)c2c1 [Example A427, 3-(4-(4-hydroxypiperidin-1-yl)phenyl)-N-((1-morpholinocyclohexyl)methyl)-1H-indazole-5-carboxamide] |
| < 100 | 100 to 500 | 100 to 500 |  |  | CN1CCC(Oc2ccc(-c3n[nH]c4ccc(C(=O)NCC5(N6CCOCC6)CCCC5)cc34)cc2)CC1 [Example A428, 3-(4-((1-methylpiperidin-4-yl)oxy)phenyl)-N-((1-morpholinocyclopentyl)methyl)-1H-indazole-5-carboxamide] |
| < 100 | < 100 | 100 to 500 |  |  | CN1CCC(Oc2ccc(-c3n[nH]c4ccc(C(=O)NCC5(N6CCOCC6)CCCCCC5)cc34)cc2)CC1 [Example A429, 3-(4-((1-methylpiperidin-4-yl)oxy)phenyl)-N-((1-morpholinocycloheptyl)methyl)-1H-indazole-5-carboxamide] |
| < 100 | 100 to 500 | 100 to 500 |  |  | CN1CCC(Oc2ccc(-c3n[nH]c4ccc(C(=O)NCC5(c6ccccc6)CC5(C)C)cc34)cc2)CC1 (stereo not drawn) [Example A431, N-((2,2-dimethyl-1-phenylcyclopropyl)methyl)-3-(4-((1-methylpiperidin-4-yl)oxy)phenyl)-1H-indazole-5-carboxamide] |
| < 100 |  |  | < 100 | < 100 | O=C(NCC1(N2CCOCC2)CCCCC1)c1ccc2[nH]nc(-c3ccc(OC4CCN(CCO)CC4)cc3)c2c1 [Example A432, 3-(4-((1-(2-hydroxyethyl)piperidin-4-yl)oxy)phenyl)-N-((1-morpholinocyclohexyl)methyl)-1H-indazole-5-carboxamide] |
| < 100 |  |  | 100 to 500 | 100 to 500 | O=C(NCC1(c2cccs2)CCOCC1)c1ccc2[nH]nc(-c3ccc(OC4CCN(C5COC5)CC4)cc3)c2c1 [Example A433, 3-(4-((1-(oxetan-3-yl)piperidin-4-yl)oxy)phenyl)-N-((4-(thiophen-2-yl)tetrahydro-2H-pyran-4-yl)methyl)-1H-indazole-5-carboxamide] |
| < 100 |  |  | > 500 | > 500 | O=C(NCC1(OC2CCCC2)CCCCC1)c1ccc2[nH]nc(-c3ccc(N4CCOCC4)cc3)c2c1 [Example A435, N-((1-(cyclopentyloxy)cyclohexyl)methyl)-3-(4-morpholinophenyl)-1H-indazole-5-carboxamide] |
| < 100 |  |  | 100 to 500 | 100 to 500 | O=C(NCC1(c2cccs2)CCOCC1)c1ccc2[nH]nc(-c3ccc(N4CCOCC4)cc3)c2c1 [Example A436, 3-(4-morpholinophenyl)-N-((4-(thiophen-2-yl)tetrahydro-2H-pyran-4-yl)methyl)-1H-indazole-5-carboxamide] |
